Experimental data: publication PMC11897524 (Frontiers in Pharmacology, 2025)

Experiments:
BRDT = BRDT (Homo sapiens, UniProt Q58F21); test: Binding affinity to BET and STAT family members
[1] = test system: panel of 76 human kinases; test: SelectScreen kinase selectivity panel; assay type: biochemical
Procedure: (§1) The kinase selectivity profile of BST-4 was performed by the SelectScreen kinase profiling service (Thermo Fisher Scientific). Kinase selectivity assay was performed using Z′-LYTE ™ screening protocol kit. Briefly, the test compounds were screened in 1% DMSO (final). For 10-point titrations, perform a 3-fold dilution starting at a starting concentration of 50 µM. Then 2.5 µL 4× test compound, 2.4 µL kinase buffer, 5 µL 2× kinase mixture and 2.5 µL 4× ATP solution was added in black 384-well plate. After shaking for 30 s, the plates were incubated for 60 min at room temperature. Add developing reagent solution and shake the plate for 30 s, then incubate for 1 h at room temperature. The Fluorescence intensity per well was read using a fluorescence plate reader. SelectScreen® Kinase Profiling Service used XLfit from IDBS. The dose response curve was curve fit to model number 205 (sigmoidal dose-response model) and inhibition rates were calculated. 50% inhibition was used as a activity threshold. IC50 values were calculated based on curve fitting.

ERBB4 = ERBB4 (Homo sapiens, UniProt Q15303); test: SelectScreen Z′-LYTE kinase assay; assay type: biochemical
Procedure: as §1

FGFR1 = FGFR1 (Homo sapiens, UniProt P11362); test: SelectScreen Z′-LYTE kinase assay; assay type: biochemical
Procedure: as §1

SRMS = SRMS (Homo sapiens, UniProt Q9H3Y6); test: SelectScreen Z′-LYTE kinase assay; assay type: biochemical
Procedure: as §1

IGF1R = IGF1R (Homo sapiens, UniProt P08069); test: SelectScreen Z′-LYTE kinase assay; assay type: biochemical
Procedure: as §1

KDR = KDR (Homo sapiens, UniProt P35968); test: SelectScreen Z′-LYTE kinase assay; assay type: biochemical
Procedure: as §1

SYK = SYK (Homo sapiens, UniProt P43405); test: SelectScreen Z′-LYTE kinase assay; assay type: biochemical
Procedure: as §1

BLK = BLK (Homo sapiens, UniProt P51451); test: SelectScreen Z′-LYTE kinase assay; assay type: biochemical
Procedure: as §1

DDR1 = DDR1 (Homo sapiens, UniProt Q08345); test: SelectScreen Z′-LYTE kinase assay; assay type: biochemical
Procedure: as §1

EPHA1 = EPHA1 (Homo sapiens, UniProt P21709); test: SelectScreen Z′-LYTE kinase assay; assay type: biochemical
Procedure: as §1

PDGFRA = PDGFRA (Homo sapiens, UniProt P16234); test: SelectScreen Z′-LYTE kinase assay; assay type: biochemical
Procedure: as §1

FLT3 = FLT3 (Homo sapiens, UniProt P36888); test: SelectScreen Z′-LYTE kinase assay; assay type: biochemical
Procedure: as §1

EPHA4 = EPHA4 (Homo sapiens, UniProt P54764); test: SelectScreen Z′-LYTE kinase assay; assay type: biochemical
Procedure: as §1

PDGFRB = PDGFRB (Homo sapiens, UniProt P09619); test: SelectScreen Z′-LYTE kinase assay; assay type: biochemical
Procedure: as §1

NTRK1 = NTRK1 (Homo sapiens, UniProt P04629); test: SelectScreen Z′-LYTE kinase assay; assay type: biochemical
Procedure: as §1

[2] = Hematology parameters of treated mice; assay type: in vivo, BALB/c nude mice; details: BST-4-treated vs vehicle groups
Procedure: To further investigate the in vivo effects of BST-4, 6–8 weeks male BALB/c nude mice were obtained by Changzhou Cavens Experimental Animal Co., Ltd. (Changzhou, China). The mice were acclimatized to the laboratory environment for a week before the experiment. The housing conditions were maintained at a temperature of 22°C ± 2°C, a relative humidity of 50%–60%, and a 12-h light/dark cycle. 0.1 mL of CAKI-2cell suspension (1 × 10⁶ cells) was subcutaneously injected into the right flank of each mouse. […] The vehicle group was injected with a vehicle solution consisting of 5% DMSO and PBS. The tumor volume of mice was measured every 2 days and calculated according to the formula: (c × c × d)/2, where c and d represent the minimum diameter and maximum diameter, respectively. All animal experiments were performed and approved by the Ethics Committee of China Pharmaceutical University.
FIGURE 12 Hematology parameters of mice in the BST-4-treated groups and vehicle groups. (A) White blood cell (WBC); (B) Red blood cells (RBC); (C) Platelets (PLT); (D) Hemoglobin (HGB). Data are presented as the mean ± SD, n = 5.

CAKI-2 cells = test: MTT cytotoxicity assay; assay type: cell-based, human
Procedure: Human normal renal cortical proximal tubular epithelial cell line HK-2 and human renal carcinoma cell lines CAKI-2, SLR-23, 769-P, A704 and RCC4 were previously purchased from the American Type Culture Collection (ATCC, Manassas, VA, USA) or the European Collection of Cell Cultures (ECACC, Salisbury, United Kingdom). HK2, A704, and RCC4 cells were maintained in high glucose DMEM supplemented with 10% FBS and 1% penicillin/streptomycin. SLR-23 and […] cells were cultured in RPMI-1640 medium with 10% FBS and 1% penicillin/streptomycin. CAKI-2 cells were maintained in McCoy’s 5A medium supplemented with 10% FBS and 1% penicillin/streptomycin. All the cell lines were cultured at 37°C in a humidified atmosphere of 5% CO2 and 95% air.
The effect of hit compounds on cytotoxicity was determined as previously reported ([Ding et al., 2020]). In brief, cells treated with the tested compounds were added with MTT reagent to form formazan crystals, and then the optical density (OD) values at 570 nm were determined after the crystals were dissolved in DMSO. […] Next, the values of IC50 of the selected compounds against more RCC cell lines were determined. The 5 × 10^3 cells in 100 μL culture medium were injected into each well of a 96-well plate and cultured overnight. Add different concentrations of compounds and incubate for 48 h. Then 100 μL of MTT (0.5 mg/mL) solution was added to the 96-well plate and maintained at 37°C for 4 h. Finally, 200 μL of DMSO was added and shaken for 10 min. The OD values at 570 nm were determined by a Synergy 4 microplate reader.

EPHA4, sequence (P54764 20-986): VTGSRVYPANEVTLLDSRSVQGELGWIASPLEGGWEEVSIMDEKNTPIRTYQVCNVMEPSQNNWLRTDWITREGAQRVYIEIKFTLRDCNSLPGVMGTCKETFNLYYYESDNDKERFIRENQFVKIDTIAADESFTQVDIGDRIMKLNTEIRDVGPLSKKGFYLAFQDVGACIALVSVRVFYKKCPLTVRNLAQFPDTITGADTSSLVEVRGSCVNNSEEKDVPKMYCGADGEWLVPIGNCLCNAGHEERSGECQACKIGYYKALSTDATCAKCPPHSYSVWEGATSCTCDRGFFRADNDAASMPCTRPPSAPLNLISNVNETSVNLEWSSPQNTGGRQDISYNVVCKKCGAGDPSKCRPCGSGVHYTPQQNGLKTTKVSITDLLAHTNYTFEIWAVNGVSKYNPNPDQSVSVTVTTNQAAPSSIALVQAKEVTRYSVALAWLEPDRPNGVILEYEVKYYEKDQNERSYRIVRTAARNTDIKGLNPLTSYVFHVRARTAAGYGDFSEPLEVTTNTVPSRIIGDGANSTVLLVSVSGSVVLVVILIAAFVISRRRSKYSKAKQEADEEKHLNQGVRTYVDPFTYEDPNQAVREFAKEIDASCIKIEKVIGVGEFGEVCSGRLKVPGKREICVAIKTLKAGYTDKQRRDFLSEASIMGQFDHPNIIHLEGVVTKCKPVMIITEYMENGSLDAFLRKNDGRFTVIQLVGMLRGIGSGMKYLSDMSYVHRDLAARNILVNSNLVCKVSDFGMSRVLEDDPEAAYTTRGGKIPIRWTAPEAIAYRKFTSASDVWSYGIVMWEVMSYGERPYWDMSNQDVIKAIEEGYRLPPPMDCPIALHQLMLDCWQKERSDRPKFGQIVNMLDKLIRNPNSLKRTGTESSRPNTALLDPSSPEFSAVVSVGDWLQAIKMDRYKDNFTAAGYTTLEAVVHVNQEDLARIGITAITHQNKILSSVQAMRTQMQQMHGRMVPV
KDR, sequence (P35968 20-1356): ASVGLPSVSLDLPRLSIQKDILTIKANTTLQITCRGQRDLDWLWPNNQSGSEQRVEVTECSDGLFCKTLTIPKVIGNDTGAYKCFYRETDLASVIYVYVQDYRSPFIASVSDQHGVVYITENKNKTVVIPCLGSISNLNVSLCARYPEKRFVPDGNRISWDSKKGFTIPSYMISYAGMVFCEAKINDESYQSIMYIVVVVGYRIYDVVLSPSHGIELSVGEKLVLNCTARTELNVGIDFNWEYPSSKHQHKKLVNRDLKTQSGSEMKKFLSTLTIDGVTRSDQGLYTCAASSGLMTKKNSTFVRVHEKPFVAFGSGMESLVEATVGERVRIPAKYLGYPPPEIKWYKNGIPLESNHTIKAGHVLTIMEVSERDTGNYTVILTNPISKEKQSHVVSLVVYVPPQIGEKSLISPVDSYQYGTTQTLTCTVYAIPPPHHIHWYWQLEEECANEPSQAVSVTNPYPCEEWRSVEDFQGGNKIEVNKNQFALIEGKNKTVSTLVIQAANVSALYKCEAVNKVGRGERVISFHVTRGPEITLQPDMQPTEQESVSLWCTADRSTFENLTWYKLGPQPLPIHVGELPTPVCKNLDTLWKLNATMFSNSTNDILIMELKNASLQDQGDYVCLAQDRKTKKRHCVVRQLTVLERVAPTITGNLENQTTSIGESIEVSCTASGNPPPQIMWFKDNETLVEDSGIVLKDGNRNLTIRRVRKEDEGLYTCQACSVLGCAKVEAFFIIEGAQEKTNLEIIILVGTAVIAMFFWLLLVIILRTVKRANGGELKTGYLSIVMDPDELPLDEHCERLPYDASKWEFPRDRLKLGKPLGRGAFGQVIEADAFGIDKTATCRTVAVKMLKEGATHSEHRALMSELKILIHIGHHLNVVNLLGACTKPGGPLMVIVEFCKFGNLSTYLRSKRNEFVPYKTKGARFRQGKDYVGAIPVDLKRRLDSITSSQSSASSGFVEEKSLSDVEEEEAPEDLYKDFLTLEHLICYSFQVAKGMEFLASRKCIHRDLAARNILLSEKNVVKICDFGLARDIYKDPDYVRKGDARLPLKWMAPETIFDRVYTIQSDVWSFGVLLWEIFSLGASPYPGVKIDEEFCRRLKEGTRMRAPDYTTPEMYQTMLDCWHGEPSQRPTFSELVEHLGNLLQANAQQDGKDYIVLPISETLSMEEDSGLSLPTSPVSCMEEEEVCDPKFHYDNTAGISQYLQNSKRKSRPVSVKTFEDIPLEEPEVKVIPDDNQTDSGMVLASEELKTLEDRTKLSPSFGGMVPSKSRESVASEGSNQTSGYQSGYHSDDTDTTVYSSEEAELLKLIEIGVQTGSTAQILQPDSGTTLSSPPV
BLK, sequence (P51451 whole entry): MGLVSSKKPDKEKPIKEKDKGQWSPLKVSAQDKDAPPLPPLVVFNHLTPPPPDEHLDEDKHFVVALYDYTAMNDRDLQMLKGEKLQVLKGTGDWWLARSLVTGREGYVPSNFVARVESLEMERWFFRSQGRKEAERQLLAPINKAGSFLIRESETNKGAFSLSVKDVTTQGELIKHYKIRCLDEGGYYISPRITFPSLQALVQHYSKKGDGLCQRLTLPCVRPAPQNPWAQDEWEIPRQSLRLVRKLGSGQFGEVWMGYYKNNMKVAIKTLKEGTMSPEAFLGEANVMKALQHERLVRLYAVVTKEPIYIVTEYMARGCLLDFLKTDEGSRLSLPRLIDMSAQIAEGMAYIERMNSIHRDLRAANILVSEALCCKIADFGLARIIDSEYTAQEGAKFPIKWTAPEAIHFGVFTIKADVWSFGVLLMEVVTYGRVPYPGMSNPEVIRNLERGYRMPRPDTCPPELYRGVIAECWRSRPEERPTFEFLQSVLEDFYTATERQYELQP
IGF1R, sequence (P08069 31-1367): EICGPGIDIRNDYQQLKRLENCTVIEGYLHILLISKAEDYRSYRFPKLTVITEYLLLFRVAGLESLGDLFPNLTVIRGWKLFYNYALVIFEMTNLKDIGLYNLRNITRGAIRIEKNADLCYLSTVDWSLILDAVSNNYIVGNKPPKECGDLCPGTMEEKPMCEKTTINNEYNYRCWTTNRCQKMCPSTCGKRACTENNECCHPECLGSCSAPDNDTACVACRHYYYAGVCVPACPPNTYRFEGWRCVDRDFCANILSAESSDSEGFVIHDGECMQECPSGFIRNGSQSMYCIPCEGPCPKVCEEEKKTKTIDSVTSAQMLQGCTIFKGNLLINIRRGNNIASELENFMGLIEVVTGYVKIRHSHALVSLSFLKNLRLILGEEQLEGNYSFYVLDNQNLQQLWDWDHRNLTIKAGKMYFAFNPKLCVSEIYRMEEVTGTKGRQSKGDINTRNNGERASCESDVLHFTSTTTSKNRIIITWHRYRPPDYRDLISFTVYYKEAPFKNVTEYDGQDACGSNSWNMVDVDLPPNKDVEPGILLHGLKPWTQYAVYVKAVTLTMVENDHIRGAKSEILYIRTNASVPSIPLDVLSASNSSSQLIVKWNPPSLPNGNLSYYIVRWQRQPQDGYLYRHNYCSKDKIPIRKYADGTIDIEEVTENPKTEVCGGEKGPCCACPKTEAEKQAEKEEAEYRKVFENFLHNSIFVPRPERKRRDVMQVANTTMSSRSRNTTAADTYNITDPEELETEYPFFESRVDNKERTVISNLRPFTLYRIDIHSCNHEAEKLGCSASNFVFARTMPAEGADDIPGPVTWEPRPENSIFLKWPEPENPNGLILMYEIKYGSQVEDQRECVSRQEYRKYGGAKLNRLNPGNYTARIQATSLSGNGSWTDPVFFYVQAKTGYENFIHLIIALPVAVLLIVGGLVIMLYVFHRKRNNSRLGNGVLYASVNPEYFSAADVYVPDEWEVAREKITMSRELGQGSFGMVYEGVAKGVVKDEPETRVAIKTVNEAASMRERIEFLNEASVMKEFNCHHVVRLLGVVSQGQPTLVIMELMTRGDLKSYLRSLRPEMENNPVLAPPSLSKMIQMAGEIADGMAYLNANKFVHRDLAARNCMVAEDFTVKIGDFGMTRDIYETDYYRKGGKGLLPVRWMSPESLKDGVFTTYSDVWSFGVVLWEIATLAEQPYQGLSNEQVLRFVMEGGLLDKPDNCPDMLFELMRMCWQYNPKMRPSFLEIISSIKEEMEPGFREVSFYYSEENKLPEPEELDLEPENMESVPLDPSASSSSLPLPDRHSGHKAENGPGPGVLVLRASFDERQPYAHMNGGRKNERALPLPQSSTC
FLT3, sequence (P36888 27-993): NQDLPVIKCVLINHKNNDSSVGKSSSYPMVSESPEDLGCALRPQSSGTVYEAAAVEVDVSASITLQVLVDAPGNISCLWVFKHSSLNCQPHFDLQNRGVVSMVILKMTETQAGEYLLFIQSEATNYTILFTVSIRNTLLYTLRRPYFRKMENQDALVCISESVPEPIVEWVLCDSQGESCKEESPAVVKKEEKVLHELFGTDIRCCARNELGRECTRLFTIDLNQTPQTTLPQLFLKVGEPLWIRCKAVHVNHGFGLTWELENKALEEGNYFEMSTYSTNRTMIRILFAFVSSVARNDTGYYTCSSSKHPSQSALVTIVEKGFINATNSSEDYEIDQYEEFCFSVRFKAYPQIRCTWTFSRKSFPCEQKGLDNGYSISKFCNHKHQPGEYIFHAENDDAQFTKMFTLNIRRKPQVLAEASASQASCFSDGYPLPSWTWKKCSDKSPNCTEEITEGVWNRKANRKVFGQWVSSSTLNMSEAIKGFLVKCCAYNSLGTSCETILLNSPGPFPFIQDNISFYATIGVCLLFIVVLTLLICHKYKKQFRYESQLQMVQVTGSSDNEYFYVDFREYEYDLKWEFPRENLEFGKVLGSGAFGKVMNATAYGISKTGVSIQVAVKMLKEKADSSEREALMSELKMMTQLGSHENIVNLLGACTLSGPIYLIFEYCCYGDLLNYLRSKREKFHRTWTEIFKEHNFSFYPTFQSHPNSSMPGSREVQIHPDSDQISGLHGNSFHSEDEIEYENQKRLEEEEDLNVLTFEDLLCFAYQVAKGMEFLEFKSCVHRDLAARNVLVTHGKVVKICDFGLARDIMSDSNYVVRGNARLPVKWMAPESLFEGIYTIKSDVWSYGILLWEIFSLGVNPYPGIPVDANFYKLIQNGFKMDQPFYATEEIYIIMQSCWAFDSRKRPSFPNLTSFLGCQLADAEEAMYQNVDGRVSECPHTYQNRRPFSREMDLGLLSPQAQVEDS

Kd (BRDT): > 10 µM
inhibition of all 76 kinases at 1 µM ([1]; 1 µM): less than 10%
IC50 ([1]; read-out: IC50 on panel of 76 human kinases, all kinases of the panel): > 10 µM
IC50 (ERBB4): > 10 µM
inhibition at 1 µM (ERBB4): 0.78%
IC50 (FGFR1): > 10 µM
inhibition at 1 µM (FGFR1): 0.59%
IC50 (SRMS): > 10 µM
inhibition at 1 µM (SRMS): 0.53%
IC50 (IGF1R): > 10 µM
inhibition at 1 µM (IGF1R): 0.91%
IC50 (KDR): > 10 µM
inhibition at 1 µM (KDR): 1.51%
IC50 (SYK): > 10 µM
inhibition at 1 µM (SYK): 1.92%
IC50 (BLK): > 10 µM
inhibition at 1 µM (BLK): 0.54%
IC50 (DDR1): > 10 µM
inhibition at 1 µM (DDR1): 3.63%
IC50 (EPHA1): > 10 µM
inhibition at 1 µM (EPHA1): 0.02%
IC50 (PDGFRA): > 10 µM
inhibition at 1 µM (PDGFRA): 0.37%
IC50 (FLT3): > 10 µM
inhibition at 1 µM (FLT3): 0.52%
IC50 (EPHA4): > 10 µM
inhibition at 1 µM (EPHA4): 0.58%
IC50 (PDGFRB): > 10 µM
inhibition at 1 µM (PDGFRB): 0.1%
IC50 (NTRK1): > 10 µM
inhibition at 1 µM (NTRK1): 0.67%
levels of representative hematological markers (WBC, RBC, PLT, HGB) vs vehicle [2]: no significant differences
SMILES: CCS(=O)(=O)Cc1cnc(Oc2c(F)cc(F)cc2OCCCCOc2ccc(/C=C/c3cc(OC)cc(OC)c3)cc2)c(-c2cc(C)c3c(=O)[nH]ccn23)c1 [BST-4]
IC50 (CAKI-2 cells; Homo sapiens, CAKI-2, cell growth, 48 h treatment, read-out: IC50 (μM) ± SD CAKI-2): 0.76 ± 0.05 µM
cell inhibitory rate (%) against CAKI-2 cells (CAKI-2 cells; all compounds at the same concentration): more than 95%
